Test results from patent US9067898B1, “Isothiazole derivatives as GPR120 agonists for the treatment of type II diabetes” (Janssen Pharmaceutica NV, priority 2014, dated 2015).

What was measured:
Format in all cases: cell-based
Human GPR120 short form [1] = biological target: T1, Human GPR120 short form (Homo sapiens, UniProt Q5NUL3); test: Human GPR120 calcium flux assay (FLIPR), Procedure Calcium B; details: HEK-293 cells expressing human GPR120 short form, 4200 cells/well; read-out: GPR120 Ca2+ Assay B EC50
T1 construct: expressed in transfected cells
T1 sequence (Q5NUL3 1-361): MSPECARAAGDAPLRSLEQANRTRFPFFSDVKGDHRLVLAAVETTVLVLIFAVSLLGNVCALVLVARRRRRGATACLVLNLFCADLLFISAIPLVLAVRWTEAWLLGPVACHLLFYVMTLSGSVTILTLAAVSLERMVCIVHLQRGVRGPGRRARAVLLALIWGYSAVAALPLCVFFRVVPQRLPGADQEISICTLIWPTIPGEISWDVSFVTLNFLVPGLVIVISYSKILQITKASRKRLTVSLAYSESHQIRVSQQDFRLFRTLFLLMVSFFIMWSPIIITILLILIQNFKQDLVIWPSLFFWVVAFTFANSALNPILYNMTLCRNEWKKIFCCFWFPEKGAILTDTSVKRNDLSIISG
Text: This in vitro assay serves to assess test compound agonist activity against the short splice variant (SVS with Accession number NM_001195755.1 confirmed by sequencing data) of the GPR120 receptor. The Human Short splice variant #2 (NM_001195755.1) is missing an in-frame coding exon compared to variant 1 (the Human Long splice variant NM_181745.3), resulting in a shorter isoform (GPR120-S) lacking a 16 aa protein segment compared to isoform GPR120-L. The assay platform utilizes HEK-293 cells stably transfected to express the Human GPR120 short form. These cells are first loaded with the Ca^+2 sensitive dye, Fluo-4 NW. Upon stimulation, intracellular released Ca^+2 can bind to the dye and alter its fluorescence intensity. This increase in fluorescence signal, and thus the flux in intracellular [Ca^2+], is detected and quantitated by fluorescence imaging using a FLIPR reader. The effect of the agonist is measured as a function of concentration and used to calculate an EC50 based upon a response curve.
In this procedure 4200 cells/well were employed.
A Human GPR120 clone (Genbank accession number NM_001195755.1) was placed into the pcDNA3.1 mammalian expression vector carrying the neomycin resistance gene. A stable mammalian cell was generated by placing the above clone into a HEK293 background. Clonal cells responding to long chain fatty acids had expression levels of GPR120 confirmed by RT-qPCR. Human HEK-GPR120 cells were cultured in Dulbecco's Modified Eagle's Medium (DMEM)/F12 medium supplemented with 10% fetal bovine serum (FBS), 1% L-Glutamine and 1% penicillin/streptomycin and 0.5 mg/ml G-418. Cells were split 2 times a week to keep the cells in the log-phase growth.
In preparation for the assay, HEK cells stably transfected with Human GPR120 (2.5K cells per well in 25 uL growth medium) were seeded into 384-well plates and then incubated overnight (37° C., 5% CO2). The next day, the media was changed to 20 μL assay buffer and the cell starved for 1 h at 37° C. The dye loading solution (2× dye) was prepared using 10 mL assay buffer, 100 μL of 250 mM probenecid, 1 bottle of Component A, and 20 μl of dye in DMSO. Twenty μL of the 2× dye loading buffer was then added to each well. The plates were incubated at 37° C. for 30 min, then at room temperature for an additional 15 minutes, before performing the assay on FLIPR. Test compounds were prepared in assay buffer (2 uL of cpd+198 uL assay buffer, final DMSO in assay plate is 0.2%) at the desired concentration, more particularly at 100, 50, 25, 12.5, 6.25, 3.125, 1.562, 0.781, 0.391, 0.195, 0.098, 0.049, 0.024 and 0.012 μM.
The assay was performed on a FLIPR plate reader using the following parameters. Baseline was read for 10 seconds at 1 sec intervals. The program was set to transfer 10 μL of ligand from compound plate to cell plate after baseline reading. Aspiration was executed at: 10 μL/sec speed, 4.6 μL height; Dispensing was executed at: 30 μL/sec speed, 45 μL height. After compound addition, each well was read for 300 sec, with measurements collected at 1 sec intervals.
The kinetic data from the FLIPR was based upon a 5 minute window for data collection. The fluorescence of each sample well was used for individual calculations of a normalized RFU value, which was defined as maximum response minus the minimum response. The normalized fluorescence reading (RFU) was calculated as follows: RFU=Fmax−Fmin The data were fitted to a sigmoidal dose-response curve with a variable Hill slope (<2) using nonlinear regression with GraphPad Prism 5.0 to calculate the EC50 values. The Fitting Equation was: Y=Bottom+(Top−Bottom)/(1+10^((Log EC50−X)*HillSlope)), where X is the log of the concentration and Y is the response.

[2] = biological target: T2, short form of the GPR120 receptor (GPR120S) (Homo sapiens, UniProt Q5NUL3); test: Human GPR120 DiscoveRx PathHunter Beta-Arrestin assay, Procedure β-arrestin B; details: PathHunter CHO-K1 GPR120S β-Arrestin cell line, 5000 cells/well, read-out: hGPR120 β-arrestin B EC50
T2 construct: host or cells: PathHunter CHO-K1 GPR120S β-Arrestin Cell Line
Text: The binding of an agonist (medium/long chain fatty acids or small molecule agonists) to the G-protein-coupled receptor GPR120 activates phospholipase C, leading to release of intracellular Ca^+2 through the generation of inositol 1,4,5-trisphosphate (InsP3 or IP3). GPR120 activation can also trigger intracellular signaling via recruitment of Beta-Arrestin. In the present method, agonist-induced activation of the human GPR120 receptor is monitored through the use of PathHunter CHO-K1 GPR120 Beta-Arrestin Cell Line engineered by DiscoveRx, as detailed below. The cell lines are designed to co-express both the ProLink/Enzyme Donor (PK)-tagged GPCR and the Enzyme […] (EA)-tagged Beta-Arrestin fusion proteins. Upon GPR120 receptor stimulation/activation, the EA-tagged Beta-Arrestin portion is translocated to the tagged receptor, where the two enzyme fragments are brought within close proximity. Under these conditions, these fragments can interact and form an active Beta-gal enzyme complex through Enzyme Fragment Complementation (EFC). This active Beta-gal complex can enzymatically hydrolyse the substrate to produce a detectable light signal; therefore, activation as a function of agonist concentration can be expressed as an EC50 value to determine relative compound activities. This in vitro assay therefore serves to assess compound agonist activity of the GPR120. Procedure β-Arrestin A: In Procedure β-arrestin A, the cell used were PathHunter CHO-K1 GPR120 β-Arrestin Cell Line, expressing the long form of human GPR120 (Genbank accession number NM 181745), with 3000 cells per well. Procedure β-Arrestin B: In Procedure 3-arrestin B the cells used were PathHunter CHO-K1 GPR120S β-Arrestin Cell Line, expressing the short form of the GPR120 receptor (Accession #NM_181745), with 5000 cells/well. Assay Procedure:
The selected CHO-K1 GPR120 β-Arrestin cells were cultured in Ham's F12 media supplemented with 10% fetal bovine serum (FBS), 1% Glutamine, lx p/s, 800 μg/mL G418 and 300 μg/mL Hygromycin B (for selection). Cell stocks were maintained and grown in a sub-confluent state using standard cell culture procedures. The day before the experiment, the cells were harvested with non-enzymatic cell dissociation buffer and re-suspended in complete growth media at the desired concentration. A Corning 384-plate was then seeded with the proper number of cells in a volume of 25 μL, per well. The seeded plates were incubated overnight at 37° C.
On the day of the experiment, the Assay Buffer containing (a) HBSS with Ca^++ and Mg^++, (b) 20 mM HEPES, and (c) 0.1% BSA stabilizer (pH 7.4) was prepared. The growth medium was gently removed from the cell plates and 20 μL of Assay Buffer added to each well. The plate was then incubated at 37° C. for 60 min. Test compounds were serially diluted in Assay Buffer to desired concentrations (more particularly to one or more of the following μM concentrations: 25, 12.5, 6.25, 3.125, 1.5625, 0.78125, 0.390625, 0.1953125, 0.09765625, 0.048828125, 0.024414063, 0.012207031). Five μL of compound dilution was then added to each well and the plate incubated at 37° C. for 90 min. The detection reagents were prepared according to the manufacture's instruction. Twelve μL of the detection reagents were added to each well and the plate incubated at room temperature for 60 min.
The plates were read on an EnVision instrument, using Protocol name: Luminescence, Plate type: 384 Costar, Measurement height: 3 mm, Measurement time: 1 s, Aperture: 384 Plate aperture. The % activity relative to the positive control was calculated using the following equation:
The % Activity values were plotted versus the concentration of test compound and fitted to a sigmoidal dose-response curve with a Hill slope=1 (fixed value) using nonlinear regression with GraphPad Prism 5.0 to calculate the EC50 values. […]

Human GPR120 short form [3] = biological target: T1, Human GPR120 short form; test: Human GPR120 calcium flux assay (FLIPR), Procedure Calcium A; details: HEK-293 cells expressing human GPR120 short form, 2500 cells/well; read-out: GPR120 Ca2+ Assay A EC50
Procedure, shortened: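 HEK293 cells stably expressing the short isoform (NM_001195755.1), 2500/well, starved 1 h, then loaded with Fluo-4 NW plus probenecid (30 min 37 °C, 15 min RT). Compound solutions 0.012–100 μM, 0.2% DMSO final; FLIPR read 300 s after addition. EC50 from Fmax−Fmin fitted to variable-slope sigmoid (Hill <2).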

T2 sequence (P32121 whole entry partner, one chain of several): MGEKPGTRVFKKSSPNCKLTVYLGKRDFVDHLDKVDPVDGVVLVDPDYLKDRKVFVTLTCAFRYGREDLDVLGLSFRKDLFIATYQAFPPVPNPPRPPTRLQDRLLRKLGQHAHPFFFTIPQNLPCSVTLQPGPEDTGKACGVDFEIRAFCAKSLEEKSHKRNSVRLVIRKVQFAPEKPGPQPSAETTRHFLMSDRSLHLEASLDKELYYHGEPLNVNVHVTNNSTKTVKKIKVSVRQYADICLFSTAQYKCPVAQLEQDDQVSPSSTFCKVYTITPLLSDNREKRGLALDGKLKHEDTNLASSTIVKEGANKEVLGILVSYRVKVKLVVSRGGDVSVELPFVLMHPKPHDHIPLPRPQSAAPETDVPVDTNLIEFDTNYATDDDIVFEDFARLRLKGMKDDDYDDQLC

Row | Compound | EC50 (Human GPR120 short form [1]) [nM] | EC50 [2] [nM] | EC50 (Human GPR120 short form [3]) [nM]
1 | CCc1ccc(-c2nsc(C(C)C)c2COc2ccc(CCC(=O)O)c(C)c2C)cc1 [Cpd 64, 3-(4-[[3-(4-ethylphenyl)-5-(propan-2-yl)-1,2-thiazol-4-yl]methoxy]-2,3-dimethylphenyl)propanoic acid] | 923 | – | –
2 | Cc1ccc(-c2snc(Cl)c2COc2ccc(CCC(=O)O)cc2)c(C)c1 [Cpd 255, 3-(4-{[3-Chloro-5-(2,4-dimethylphenyl)isothiazol-4-yl]methoxy}phenyl)propanoic acid] | 550 | – | –
3 | CCc1ccc(-c2nsc(C(F)(F)F)c2COc2c(F)cc(CC(C)C(=O)O)cc2F)cc1F (stereo not shown) [Cpd 212, 3-(4-((3-(4-ethyl-3-fluorophenyl)-5-(trifluoromethyl)isothiazol-4-yl)methoxy)-3,5-difluorophenyl)-2-methylpropanoic acid] | – | 74 | 600
4 | COc1cc(F)c(-c2nsc(C(F)(F)F)c2COc2ccc(CCC(=O)O)c(C)c2C)c(F)c1 [Cpd 229, 3-(4-[[3-(2,6-difluoro-4-methoxyphenyl)-5-(trifluoromethyl)-1,2-thiazol-4-yl]methoxy]-2,3-dimethylphenyl)propanoic acid] | – | 1810 | 936
5 | O=C(O)CCc1cc(F)c(OCc2c(C(F)(F)F)nsc2-c2ccc(Cl)c(F)c2)c(F)c1 [Cpd 110, 3-(4-[[5-(4-chloro-3-fluorophenyl)-3-(trifluoromethyl)-1,2-thiazol-4-yl]methoxy]-3,5-difluorophenyl) propanoic acid] | – | 105 | 94
6 | Cc1ccc(-c2nsc(C(F)(F)F)c2COc2ccc(CCC(=O)O)c(C)c2C)c(F)c1 [Cpd 89, 3-(4-[[3-(2-fluoro-4-methylphenyl)-5-(trifluoromethyl)-1,2-thiazol-4-yl]methoxy]-2,3-dimethylphenyl)propanoic acid] | – | 416 | 67
7 | CCc1ccc(-c2nsc(C(F)(F)F)c2COc2c(F)cc(CCC(=O)O)cc2F)c(F)c1 [Cpd 128, 3-(4-((3-(4-ethyl-2-fluorophenyl)-5-(trifluoromethyl)isothiazol-4-yl)methoxy)-3,5-difluorophenyl)propanoic acid] | – | 59 | 124
8 | 3-(4-[[5-(4-chlorophenyl)-3-(trifluoromethyl)-1,2-thiazol-4-yl]methoxy]-2-(trifluoromethoxy)phenyl) propanoic acid [Cpd 159] | – | 819 | 274
9 | Cc1ccc(-c2nsc(C(F)(F)F)c2COc2ccc(CCC(=O)O)c(C(F)(F)F)c2)c(F)c1 [Cpd 171, 3-(4-[[3-(2-fluoro-4-methylphenyl)-5-(trifluoromethyl)-1,2-thiazol-4-yl]methoxy]-2-(trifluoromethyl)phenyl)propanoic acid] | – | 1210 | 226
10 | CCc1cc(OCc2c(Cl)nsc2-c2ccccc2C)ccc1CCC(=O)O [Cpd 227, 3-(4-[[3-chloro-5-(2-methylphenyl)-1,2-thiazol-4-yl]methoxy]-2-ethylphenyl)propanoic acid] | – | 3780 | 867
11 | Cc1ccc(-c2snc(C(F)(F)F)c2COc2ccc(CCC(=O)O)c(C(F)(F)F)c2)c(F)c1 [Cpd 221, 3-(4-[[5-(2-fluoro-4-methylphenyl)-3-(trifluoromethyl)-1,2-thiazol-4-yl]methoxy]-2-(trifluoromethyl)phenyl)propanoic acid] | – | 731 | 756
12 | CCc1ccc(-c2nsc(C(F)(F)F)c2COc2ccc(CCC(=O)O)c(C)c2C)c(F)c1 [Cpd 225, 3-(4-((3-(4-ethyl-2-fluorophenyl)-5-(trifluoromethyl)isothiazol-4-yl)methoxy)-2,3-dimethylphenyl)propanoic acid] | – | 227 | 840
